Assay results: PMC10253860, “Kinetic Profile of Urine Metabolites after Acute Intake of a Phenolic Compounds-Rich Juice of Juçara (Euterpe edulis Mart.) and Antioxidant Capacity in Serum and Erythrocytes: A Human Study” (International Journal of Molecular Sciences, 2023)

Tests used:
[1] = parameters: method as in PMID 12488939, PMID 34430750; settings: toluene-free healthy volunteers; cited from earlier work
[2] = Urinary excretion of phenolic metabolites after single 400 mL juçara juice intake (HPLC-DAD, LC-ESI-MS/MS); assay type: in vivo, human; settings: for AUC / Cmax: urine, mean ± SEM, n = 9–10; for AUC: 0–6 h after 400 mL juçara juice; for Cmax: 10 healthy subjects, after 400 mL juçara juice
Excerpt: Study volunteers were selected according to the following inclusion criteria: no clinical conditions such as cardiovascular, endocrine, gastrointestinal, renal, or hepatic diseases; no visible or known infections or inflammatory processes within three months of the study; no use of medicines or dietary supplements, no smoking, no regular alcohol drinking. The other criteria were BMI < 30 kg/m^2 and no gastric intolerance or complications related to the juçara juice intake. […] The subjects were advised to avoid vegetable and fruit sources of anthocyanins or their derivatives, such as açai, blackberries, blueberries, cherries, red and purple grapes, strawberries, and green and black tea, two days before the study. […] The subjects were also instructed not to practice intense physical activity and not to deprive themselves of sleeping before the outset of the study protocol. […] Subsequently, the participants drank 400 mL of the juçara juice within 5 min. Blood (30, 60, 120, and 360 min) and urine (0–3, 3–6 h) were collected again. The volunteers continued fasting during the 6 h of the sample collection time. The study protocol was based on evidence that anthocyanins appear to be rapidly absorbed and then eliminated within 4 h. […] Blood oxidative stress biomarkers were assessed, and urine metabolites of phenolic compounds were measured.
Phenolic compounds were extracted in urine using Waters OASIS HLB μElution plates (Milford, MA, USA), which were preconditioned with 250 μL methanol and 250 μL 0.2% acetic acid. After urine collection, the samples were immediately acidified with trifluoracetic acid. Aliquots of the samples were applied to the μ Columns of the plates and the phenolic compounds were eluted with methanol acidified with 0.2% acetic acid. The eluate was dried using CentriVap Benchtop Vacuum Concentrators (Labconco, Kansas City, MO, USA), reconstituted with methanol acidified with 5% acetic acid, and filtered with a […] PTEF filter (Millipore, Bedford, MA, USA).
The mobile phase consisted of two solvents: (A) 0.5% formic acid in water and (B) 0.5% formic acid in acetonitrile. The gradient used was 10% (B) at the beginning, 10% at 5 min, 20% at 15 min, 25% at 25 min, 35% at 33 min, 50% at 38 min, 90% at 43–44 min and 10% at 45 min. […] Quantification was based on the calibration curves of the PCA, VA, iVA, HA, HBA, and HPA standards. The concentrations were expressed as μmol/mmol creatinine for urine samples, and the elimination values were expressed in μmol. Urinary creatinine was evaluated using a Labtest kit (Labtest Diagnóstica S.A., Lagoa Santa, Minas Gerais, Brazil). The area under the curve (AUC) was calculated using the trapezoidal rule (data expressed as μmol/h), and the maximum concentration (Cmax) was calculated using the Origin 6.0 software (OriginLab Corporation, Northampton, MA, USA) and expressed as the mean and standard error of the mean (SEM). The samples collected from 0 to 3 h (after the juçara juice intake) were indicated as 3 h urine and the samples collected from 3 to 6 h were designated as 6 h urine to indicate the period of excretion. The standards’ purity varied from 95 to 98%.
Phenolic compounds’ metabolites were identified using a Prominence Liquid Chromatograph (Shimadzu, Japan) coupled to an ion trap Esquires-LC mass spectrometer (Bruker Daltonics, Billerica, MA, USA) with an electrospray ionization (ESI) interface. The chromatography condition was the same as that used for metabolite quantification by HPLC-DAD. After passing through the DAD detector, the flow rate was changed to 0.2 mL/min to inject the samples into the mass spectrometer. ESI was left in the positive mode for anthocyanins and in the negative mode for the other compounds. […] Scanning m/z was 100–1500.

SMILES | normal urine value [1] | average urine concentration at baseline ([2]; baseline samples, before the juice intake) | AUC [2] | Cmax [2]
O=C(O)CNC(=O)c1ccccc1 [Hippuric acid] | 126.36–245.13 µmol/mmol creatinine | around 243.06 µmol/mmol creatinine | 6483.34 ± 1159.82 µmol/h | 605.80 ± 75.74 µmol/mmol Creatinine
O=C(O)Cc1ccc(O)cc1 [Hydroxyphenylacetic acid] |  |  | 3527.78 ± 657.52 µmol/h | 334.09 ± 46.79 µmol/mmol Creatinine
O=C(O)[C@H]1O[C@@H](Oc2c(-c3ccc(O)cc3)oc3cc(O)cc(O)c3c2=O)[C@H](O)[C@@H](O)[C@@H]1O [Kaempferol glucuronide] |  |  | 138.05 ± 20.58 µmol/h | 13.62 ± 1.89 µmol/mmol Creatinine
O=C(O)c1ccc(O)c(O)c1.O=C(O)c1ccc(O)c(O)c1 [Protocatechuic acid, 3,4-Dihydroxybenzoic acid (protocatechuic acid)] |  |  | 282.89 ± 49.31 µmol/h | 28.26 ± 3.62 µmol/mmol Creatinine
COc1cc(C(=O)O)ccc1O[C@@H]1O[C@H](C(=O)O)[C@@H](O)[C@H](O)[C@H]1O [Vanillic acid glucuronide] |  |  | 164.38 ± 14.98 µmol/h | 16.74 ± 1.33 µmol/mmol Creatinine
COc1cc(C(=O)O)ccc1O [Vanillic acid] |  |  | 191.42 ± 25.98 µmol/h | 20.13 ± 2.27 µmol/mmol Creatinine
